# The source made the active and inactive calls. The rule behind the calls is not given here.
# Experiments:
# [1] = Toxicity in female KM mouse skin abscess model infected with methicillin-resistant Staphylococcus aureus clinical isolate 16 assessed as histological abnormalities in heart at 5 to 10 mg/kg, sc measured after 24 hrs by H and E staining based analysis; type: organism-based; conditions: in vivo, dose 5-10 mg/kg
# [2] = Toxicity in female KM mouse skin abscess model infected with methicillin-resistant Staphylococcus aureus clinical isolate 16 assessed as effect on heart at 5 to 10 mg/kg, sc measured after 24 hrs by H and E staining based analysis; type: organism-based; conditions: in vivo, dose 5-10 mg/kg
# [3] = Toxicity in female KM mouse assessed as survival at 80 mg/kg, sc measured after 24 hrs; type: organism-based; conditions: in vivo
# Cell membrane [4] = test: Induction of cell membrane disruption in methicillin-resistant Staphylococcus aureus clinical isolate 16 assessed as dead cells (Q1 region) at 16 ug/ml measured after 2 hrs by SYTO-9 and PI staining based flow cytometry analysis (reference value: 0%); type: cell membranes; conditions: dose 16.0 µg/ml
# Cell membrane [5] = test: Induction of cell membrane disruption in methicillin-resistant Staphylococcus aureus clinical isolate 16 assessed as intact cells (Q3 region) at 4 ug/ml measured after 2 hrs by SYTO-9 and PI staining based flow cytometry analysis (reference value: 96.0%); type: cell membranes; conditions: dose 4.0 µg/ml
# Cell membrane [6] = test: Induction of cell membrane disruption in methicillin-resistant Staphylococcus aureus clinical isolate 16 assessed as intact cells (Q3 region) at 16 ug/ml measured after 2 hrs by SYTO-9 and PI staining based flow cytometry analysis (reference value: 96.0%); type: cell membranes; conditions: dose 16.0 µg/ml
# Cell membrane [7] = test: Induction of cell membrane disruption in methicillin-resistant Staphylococcus aureus clinical isolate 16 assessed as dead cells (Q1 region) at 8 ug/ml measured after 2 hrs by SYTO-9 and PI staining based flow cytometry analysis (reference value: 0%); type: cell membranes; conditions: dose 8.0 µg/ml
# [8] = Toxicity in female KM mouse assessed as effect on histopathological abnormalities in lungs at 20 mg/kg, sc measured after 24 hrs by H and E staining based analysis; type: organism-based; conditions: in vivo
# Cell membrane [9] = test: Disruption of cell membrane in methicillin-resistant Staphylococcus aureus clinical isolate 16 assessed as appearance of broken surface at 16 ug/ml measured after 4 hrs by SEM analysis; type: cell membranes; conditions: dose 16.0 µg/ml
# [10] = Toxicity in female KM mouse assessed as effect on red blood cell at upto 20 mg/kg, sc measured after 24 hrs; type: organism-based; conditions: in vivo
# [11] = Toxicity in female KM mouse assessed as effect on histopathological abnormalities in liver at 20 mg/kg, sc measured after 24 hrs by H and E staining based analysis; type: organism-based; conditions: in vivo
# [12] = Toxicity in female KM mouse skin abscess model infected with methicillin-resistant Staphylococcus aureus clinical isolate 16 assessed as histological abnormalities in spleen at 5 to 10 mg/kg, sc measured after 24 hrs by H and E staining based analysis; type: organism-based; conditions: in vivo, dose 5-10 mg/kg
# L02 = test: Cytotoxicity in human L02 cells measured after 24 hrs by CCK-8 method; type: toxicity, cell-based; conditions: l02, 24 h
# Staphylococcus aureus [13] = test: Antibacterial activity against methicillin-resistant Staphylococcus aureus clinical isolate 16 infected in female KM mouse skin abscess model assessed as reduction in infiltration of inflammatory cells in subcutaneous tissue at 10 mg/kg, sc measured after 24 hrs by H and E staining based analysis; type: functional, organism-based
# [14] = Toxicity in female KM mouse skin abscess model infected with methicillin-resistant Staphylococcus aureus clinical isolate 16 assessed as histological abnormalities in kidney at 5 to 10 mg/kg, sc measured after 24 hrs by H and E staining based analysis; type: organism-based; conditions: in vivo, dose 5-10 mg/kg
# [15] = Toxicity in female KM mouse assessed as effect on hemoglobin at upto 20 mg/kg, sc measured after 24 hrs; type: organism-based; conditions: in vivo
# Staphylococcus aureus [16] = test: Antibacterial activity against methicillin-resistant Staphylococcus aureus clinical isolate 16 measured after 18 hrs in presence of phosphatidylglycerol by checkerboard broth dilution method; type: functional
# Cell membrane [17] = test: Induction of cytoplasmic membrane depolarization in methicillin-resistant Staphylococcus aureus clinical isolate 16 assessed as fold increase in fluorescence intensity at 32 time MIC measured after 35 mins by DiSC3-5 dye based fluorescence method
# Staphylococcus aureus [18] = test: Antibacterial activity against methicillin-resistant Staphylococcus aureus clinical isolate 16 infected in female KM mouse skin abscess model assessed as reduction in bacterial load at 5 mg/kg, sc measured after 24 hrs relative to control; type: functional; parameters: scale not given: the % may be the effect or the level left
# [19] = Toxicity in female KM mouse skin abscess model infected with methicillin-resistant Staphylococcus aureus clinical isolate 16 assessed as effect on kidney at 5 to 10 mg/kg, sc measured after 24 hrs by H and E staining based analysis; type: organism-based; conditions: in vivo, dose 5-10 mg/kg
# [20] = Toxicity in female KM mouse assessed as adverse effect on back skin at 5 to 20 mg/kg, sc measured after 24 hrs; type: organism-based; conditions: in vivo, dose 5-20 mg/kg
# [21] = Toxicity in female KM mouse skin abscess model infected with methicillin-resistant Staphylococcus aureus clinical isolate 16 assessed as effect on liver at 5 to 10 mg/kg, sc measured after 24 hrs by H and E staining based analysis; type: organism-based; conditions: in vivo, dose 5-10 mg/kg
# Staphylococcus aureus [22] = test: Antibacterial activity against methicillin-resistant Staphylococcus aureus clinical isolate 16 infected in female KM mouse skin abscess model assessed as reduction in inflammatory cells at 5 to 10 mg/kg, sc measured after 24 hrs by H and E staining based analysis; type: functional, organism-based; conditions: dose 5-10 mg/kg
# [23] = Toxicity in female KM mouse assessed as effect on lung at 20 mg/kg, sc measured after 24 hrs by H and E staining based analysis; type: organism-based; conditions: in vivo
# Cell membrane [24] = test: Disruption of cell membrane in methicillin-resistant Staphylococcus aureus clinical isolate 16 assessed as increase in protein leakage incubated for 4 hrs by microspectrophotometric analysis; type: cell membranes; conditions: dose <= 8.0 µg/ml
# Cell membrane [25] = test: Disruption of cell membrane in methicillin-resistant Staphylococcus aureus clinical isolate 16 assessed as increase in intracellular ROS level incubated for 50 mins by DCFH-DA staining based fluorescence assay; type: cell membranes
# Cell membrane [26] = test: Disruption of cell membrane in methicillin-resistant Staphylococcus aureus clinical isolate 16 assessed as increase in blue fluorescence at 8 times MIC measured after 4 hrs by DAPI and PI staining based laser confocal microscopy based analysis; type: cell membranes
# Cell membrane [27] = test: Induction of cell membrane disruption in methicillin-resistant Staphylococcus aureus clinical isolate 16 assessed as dead cells (Q1 region) at 64 ug/ml measured after 2 hrs by SYTO-9 and PI staining based flow cytometry analysis (reference value: 0%); type: cell membranes; conditions: dose 64.0 µg/ml
# [28] = Toxicity in female KM mouse assessed as effect on back skin at 20 mg/kg, sc measured after 24 hrs by H and E staining based analysis; type: organism-based; conditions: in vivo
# Staphylococcus aureus [29] = test: Antibacterial activity against methicillin-resistant Staphylococcus aureus clinical isolate 16 measured after 18 hrs in presence of peptidoglycan by checkerboard broth dilution method; type: functional, organism-based
# Staphylococcus aureus [30] = test: Antibacterial activity against methicillin-resistant Staphylococcus aureus clinical isolate 16 infected in female KM mouse skin abscess model assessed as log reduction in bacterial load at 5 mg/kg, sc measured after 24 hrs (reference value: 8.508 log10CFU/g); type: functional
# Staphylococcus aureus [31] = test: Antibacterial activity against methicillin-resistant Staphylococcus aureus clinical isolate 23 measured after 18 hrs by CLSI based broth microdilution method; type: functional
# Staphylococcus aureus [32] = test: Antibacterial activity against methicillin-resistant Staphylococcus aureus clinical isolate 20 measured after 18 hrs by CLSI based broth microdilution method; type: functional
# [33] = Toxicity in female KM mouse assessed as effect on UREA at upto 20 mg/kg, sc measured after 24 hrs by biochemical test; type: organism-based; conditions: in vivo
structure (smiles),measurement,setting,value
CCCCCCNC(=O)C[N+](C)(C)CCCCCOc1ccc2ccc(=O)oc2c1CC=C(C)C.[Br-],Activity,[1],Non-Toxic
same,Activity,[2],Non-Toxic
same,Activity,[3],Non-Toxic
same,Activity,Cell membrane [4],0.68%
same,Activity,Cell membrane [5],76.9%
same,Activity,Cell membrane [6],1.1%
same,Activity,Cell membrane [7],0.34%
same,Activity,[8],Non-Toxic
same,Activity,Cell membrane [9],Active
same,Activity,[10],Non-Toxic
same,Activity,[11],Non-Toxic
same,Activity,[12],Non-Toxic
same,Activity,L02,Non-Toxic
same,Activity,Staphylococcus aureus [13],Active
same,Activity,[14],Non-Toxic
same,Activity,[15],Non-Toxic
same,MIC,Staphylococcus aureus [16],64 µg/mL
same,fold change (FC),Cell membrane [17],5
same,Activity,Staphylococcus aureus [18],99.86%
same,Activity,[19],Non-Toxic
same,Activity,[20],Non-Toxic
same,Activity,[21],Non-Toxic
same,Activity,Staphylococcus aureus [22],Active
same,Activity,[23],Non-Toxic
same,Activity,Cell membrane [24],Dose-Dependent Effect
same,Activity,Cell membrane [25],Dose-Dependent Effect
same,Activity,Cell membrane [26],Active
same,Activity,Cell membrane [27],96.2%
same,Activity,[28],Non-Toxic
same,Activity,Staphylococcus aureus [29],Active
same,Activity,Staphylococcus aureus [30],2.962 log10CFU/g
same,MIC,Staphylococcus aureus [31],2 µg/mL
same,MIC,Staphylococcus aureus [32],2 µg/mL
same,Activity,[33],Non-Toxic
